Assay results published in US9771369B2, “Compounds and methods for kinase modulation, and indications therefor” (Plexxikon Inc., priority 2014, dated 2017).

Legend:
c-kit mutant D816V = c-kit mutant D816V (Homo sapiens (Human), UniProt P10721, D816V/DEL694-753); assay: c-Kit mutant D816V biochemical assay (AlphaScreen kinase activity)
Procedure: The c-kit mutant D816V (or kinase domain thereof) is an active kinase in AlphaScreen. IC50 values are determined with respect to inhibition of c-Kit mutant D816V kinase activity, where inhibition of phosphorylation of a peptide substrate is measured as a function of compound concentration. Compounds to be tested were dissolved in DMSO to a concentration of 30 mM. These were diluted […] of DMSO (4 mM) and 1 μl was added to an assay plate. These were then serially diluted 1:3 (50 μl to […] DMSO) for a total of 8 points. Plates were prepared such that each kinase reaction is […] in 1× kinase buffer (25 mM HEPES, pH 7.2, 8 mM MgCl2, 2 mM MnCl2, 50 mM NaCl, 0.01% Brij, 1 mM DTT, 0.01% BSA), 5% DMSO and 10 μM ATP. Substrate was 30 nM biotin-(E4Y)10 (EMD Millipore, Cat#12-440). C-kit mutant D816V kinase was at 0.75 ng per sample. After incubation of the kinase reaction for 30 minutes at room temperature, 5 μl of donor beads (Streptavidin coated beads (Perkin Elmer Life Science) final concentration 7.5 μg/ml) in stop buffer (25 mM Hepes pH 7.5, 100 mM EDTA, 0.01% BSA) was added, the sample was mixed and incubated for 30 minutes at room temperature before adding […] of acceptor beads (PY30 coated beads (Perkin Elmer Life Science) final concentration 7.5 μg/ml) in stop buffer. The samples were incubated for 60 minutes at room temperature and the signal per well was read on EnVision reader. Phosphorylated substrate results in binding of the PY30 antibody and association of the donor and acceptor beads such that signal correlates with kinase activity. The signal vs. compound concentration was used to determine the IC50.
Recombinant c-kit mutant D816V (residues 551-934, kinase insertion domain residues 694-753 deleted) with a 6×-histidine N-terminal tag (SEQ ID NO: 3) was expressed in E. coli Arctic Express (DE3) RIL (Stratagene). Cells were grown in Terrific Broth (TB) media to an OD600 of 0.6 at 37° C. at which temperature was reduced to 10° C., protein was induced with 1.0 mM IPTG for 18 hours and harvested by centrifugation at 8000×g for 30 minutes. Cells were re-suspended in 0.1M KPO4 pH 8.0, 250 mM NaCl, 10% Glycerol, 0.75% NP-40, 25 mM Imidazole, 5 mM BME with 0.2 mg/ml Lysosyme, 2.0 mM PMSF, 25 μg/ml DNAse I, incubated in ice for 30 minutes and lyzed with a cell disruptor (MicroFluidics). The lysate was clarified by centrifugation at 30,000×g for 2 hours. The protein was captured with Talon resin (Clontech). Contaminating proteins were washed off with 25 mM Tris-HCl pH 8.3, 250 mM NaCl, 15% Glycerol, 1% Triton X-100, and protein eluted using 100 mM EDTA. The protein was further purified using Gel Filtration column 26/600 Superdex 300 (GE) in 50 mM Tris-HCl , pH 8.0, 250 mM NaCl, 15% Glycerol, 5 mM BME. The protein was aliquoted and flash-frozen in liquid Nitrogen.

[1] = tested on: BaF3-FL KIT D816V or BaF3-FL KIT V560G/D816V cell line; assay: Cell-based assays of c-Kit mutant kinase activity (cell proliferation, ATPlite); conditions: at least one of the c-kit cell assays of Example 7
Procedure: The c-Kit mutant D816V inhibitors were assessed using an engineered BaF3-FL KIT D816V or BaF3-FL KIT V560G/D816V cell line. The BaF3-FL KIT D816V cell lines were created by introduction of KIT mutant (D816V) full length constructs that render the cells dependent on the introduced kinase for growth. Inhibitors of c-Kit mutant D816V kinase reduce or eliminate the mediated c-kit mutant D816V kinase activation, resulting in reduced cell proliferation of the BaF3-FL Kit mutant D816V cells. This inhibition is measured by the effect of compound concentration on cell growth to assess IC50 values. BaF3-FL KIT D816V cells were seeded at 1×10^4 cells per well of a 96 well cell culture plate in 50 μl of cell culture medium of RPMI Medium 1× (Invitrogen #11875-093) supplemented with 10% FBS (Invitrogen #10438), 1% Non Essential Amino Acids (Invitrogen #11140), 1% Penicillin Streptomycin (Invitrogen #15140), 1% L-Glutamine (Invitrogen #25030-081). Compounds were dissolved in DMSO at a concentration of 5 mM and were serially diluted 1:3 for a total of eight points and added to the cells to a final maximum concentration of 10 μM in 100 μl cell culture medium (final concentration 0.2% DMSO). Cells were also treated with Dasatinib as a positive control. The cells were incubated at 37° C., 5% CO2 for three days. ATPlite Buffer (Perkin Elmer #6016739) and substrate were equilibrated to room temperature, and enzyme/substrate Recombinant Firefly Luciferase/D-Luciferin was reconstituted. The cell plates were equilibrated to room temperature for 30 minutes, then lysed by addition of 25 μL per well of the ATPlite Reagent. The plate was mixed for 5 minutes on a plate shaker to lyse the cells. The plates were read on a Tecan Safire using Luminescence protocol modified to read 0.1s per well. The luminescence reading assesses the ATP content, which correlates directly with cell number such that the reading as a function of compound concentration is used to determine the IC50 value.
Plasmids P75635 and P75565 were engineered for mammalian cell expression. In both plasmids, full-length human v-kit Hardy-Zuckerman 4 feline sarcoma viral oncogene homolog gene (NCBI accession NM_000222, KIT, residues M1-V976) was subcloned into the pCI-Neo vector (Promega E1841). Plasmid P75635 contains the mutation of residue Aspartic acid 816 to Valine. Plasmid P75565 contains the double mutation of residues Valine 560 to Glycine and Aspartic acid 816 to Valine. The pCI-neo Mammalian Expression Vector carries the human cytomegalovirus (CMV) immediate-early enhancer/promoter region to promote constitutive expression of KIT and contains the neomycin phosphotransferase gene, a selectable marker.
It is understood that the results of these assays may vary as assay conditions are varied. Inhibition levels determined under the conditions described herein represent a relative activity for the compounds tested under the specific conditions employed. The cell based assays are likely to show variability due to the complexity of the system and the sensitivity thereof to any changes in the assay conditions. […] In some instances, the compounds were not tested in all of the assays, or assay results were not valid.

Sequence of c-kit mutant D816V (P10721 other isoform, or with tags, fused parts or gaps D816V/del 694-753): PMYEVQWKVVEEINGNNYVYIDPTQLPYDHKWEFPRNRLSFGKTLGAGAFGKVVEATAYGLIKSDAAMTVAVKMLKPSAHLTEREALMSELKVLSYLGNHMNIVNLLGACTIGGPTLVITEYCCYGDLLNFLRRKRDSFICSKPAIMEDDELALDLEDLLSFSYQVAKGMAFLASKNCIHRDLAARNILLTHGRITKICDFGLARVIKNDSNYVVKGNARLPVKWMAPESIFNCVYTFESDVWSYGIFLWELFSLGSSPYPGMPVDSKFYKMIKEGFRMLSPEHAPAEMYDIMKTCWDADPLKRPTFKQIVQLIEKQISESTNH

SMILES: COc1cc(-c2cc3c(N4CCC(c5nc(C)c(-c6ccc(F)cc6)[nH]5)CC4)ncnc3[nH]2)ccn1 [P-3007, 4-[4-[5-(4-fluorophenyl)-4-methyl-1H-imidazol-2-yl]-1-piperidyl]-6-(2-methoxy-4-pyridyl)-7H-pyrrolo[2,3-d]pyrimidine]
- IC50 (c-kit mutant D816V): 0.0001 to 1 µM
- IC50 [1]: < 10000 nM

SMILES: COc1cc(-c2cc3c(N4CCC(c5nc(C6CC6)c(-c6ccccc6)[nH]5)CC4)ncnc3[nH]2)ccn1 [P-3008, 4-[4-(4-cyclopropyl-5-phenyl-1H-imidazol-2-yl)-1-piperidyl]-6-(2-methoxy-4-pyridyl)-7H-pyrrolo[2,3-d]pyrimidine]
- IC50 (c-kit mutant D816V): 0.0001 to 1 µM
- IC50 [1]: < 10000 nM

SMILES: Fc1ccc(-c2cc3c(N4CCC(c5nc(C6CC6)c(-c6ccccc6)[nH]5)CC4)ncnc3[nH]2)cc1 [P-3009, 4-[4-(4-cyclopropyl-5-phenyl-1H-imidazol-2-yl)-1-piperidyl]-6-(4-fluorophenyl)-7H-pyrrolo[2,3-d]pyrimidine]
- IC50 (c-kit mutant D816V): 0.0001 to 1 µM
- IC50 [1]: < 10000 nM

SMILES: N#Cc1ccc(-c2cc3c(N4CCC(c5nc(C6CC6)c(-c6ccccc6)[nH]5)CC4)ncnc3[nH]2)cc1 [P-3010, 4-[4-[4-(4-cyclopropyl-5-phenyl-1H-imidazol-2-yl)-1-piperidyl]-7H-pyrrolo[2,3-d]pyrimidin-6-yl]benzonitrile]
- IC50 (c-kit mutant D816V): 0.0001 to 1 µM
- IC50 [1]: < 10000 nM

SMILES: Cc1nc(C2CCN(c3ncnc4[nH]c(-c5ccc(F)cc5)cc34)CC2)[nH]c1-c1cccc(OC(F)(F)F)c1 [P-3011, 6-(4-fluorophenyl)-4-[4-[4-methyl-5-[3-(trifluoromethoxy)phenyl]-1H-imidazol-2-yl]-1-piperidyl]-7H-pyrrolo[2,3-d]pyrimidine]
- IC50 (c-kit mutant D816V): 0.0001 to 1 µM
- IC50 [1]: < 10000 nM

SMILES: CCOc1cc(-c2[nH]c(C3CCN(c4ncnc5[nH]c(-c6ccc(C#N)cc6)cc45)CC3)nc2C)ccc1C [P-3095, 4-[4-[4-[5-(3-ethoxy-4-methyl-phenyl)-4-methyl-1H-imidazol-2-yl]-1-piperidyl]-7H-pyrrolo[2,3-d]pyrimidin-6-yl]benzonitrile]
- IC50 (c-kit mutant D816V): 0.0001 to 1 µM
- IC50 [1]: < 10000 nM

SMILES: CCOc1cc(-c2[nH]c(C3CCN(c4ncnc5[nH]c(-c6ccnc(OC)c6)cc45)CC3)nc2C)ccc1C [P-3096, 4-[4-[5-(3-ethoxy-4-methyl-phenyl)-4-methyl-1H-imidazol-2-yl]-1-piperidyl]-6-(2-methoxy-4-pyridyl)-7H-pyrrolo[2,3-d]pyrimidine]
- IC50 (c-kit mutant D816V): 0.0001 to 1 µM
- IC50 [1]: < 10000 nM

SMILES: Cc1nc(C2CCN(c3ncnc4[nH]c(-c5ccnc(C(F)(F)F)c5)cc34)CC2)[nH]c1-c1ccccc1 [P-3097, 4-[4-(4-methyl-5-phenyl-1H-imidazol-2-yl)-1-piperidyl]-6-[2-(trifluoromethyl)-4-pyridyl]-7H-pyrrolo[2,3-d]pyrimidine]
- IC50 (c-kit mutant D816V): 0.0001 to 1 µM
- IC50 [1]: < 10000 nM

SMILES: Cc1nc(C2CCN(c3ncnc4[nH]c(-c5cccc(C(F)(F)F)c5)cc34)CC2)[nH]c1-c1ccccc1 [P-3098, 4-[4-(4-methyl-5-phenyl-1H-imidazol-2-yl)-1-piperidyl]-6-[3-(trifluoromethyl)phenyl]-7H-pyrrolo[2,3-d]pyrimidine]
- IC50 (c-kit mutant D816V): 0.0001 to 1 µM
- IC50 [1]: < 10000 nM

SMILES: CCOc1ccc(-c2[nH]c(C3(C)CCN(c4ncnc5[nH]c(C)cc45)CC3)nc2C)cc1C [P-3099, 4-[4-[5-(4-ethoxy-3-methyl-phenyl)-4-methyl-1H-imidazol-2-yl]-4-methyl-1-piperidyl]-6-methyl-7H-pyrrolo[2,3-d]pyrimidine]
- IC50 (c-kit mutant D816V): 0.0001 to 1 µM
- IC50 [1]: < 10000 nM

SMILES: CCc1ccc(-c2[nH]c(C3(C)CCN(c4ncnc5[nH]c(C)cc45)CC3)nc2C)cc1 [P-3101, 4-[4-[5-(4-ethylphenyl)-4-methyl-1H-imidazol-2-yl]-4-methyl-1-piperidyl]-6-methyl-7H-pyrrolo[2,3-d]pyrimidine]
- IC50 (c-kit mutant D816V): 0.0001 to 1 µM
- IC50 [1]: < 10000 nM

SMILES: COc1ccc(-c2[nH]c(C3(C)CCN(c4ncnc5[nH]c(C)cc45)CC3)nc2C)cc1C [P-3102, 4-[4-[5-(4-methoxy-3-methyl-phenyl)-4-methyl-1H-imidazol-2-yl]-4-methyl-1-piperidyl]-6-methyl-7H-pyrrolo[2,3-d]pyrimidine]
- IC50 (c-kit mutant D816V): 0.0001 to 1 µM
- IC50 [1]: < 10000 nM

SMILES: COc1cc(-c2cc3c(N4CCC(c5nc(C)c(-c6ccc(C)c(OC)c6)[nH]5)CC4)ncnc3[nH]2)ccn1 [P-3104, 4-[4-[5-(3-methoxy-4-methyl-phenyl)-4-methyl-1H-imidazol-2-yl]-1-piperidyl]-6-(2-methoxy-4-pyridyl)-7H-pyrrolo[2,3-d]pyrimidine]
- IC50 (c-kit mutant D816V): 0.0001 to 1 µM
- IC50 [1]: < 10000 nM

SMILES: COc1cc(-c2[nH]c(C3(C)CCN(c4ncnc5[nH]c(C)cc45)CC3)nc2C)ccc1C [P-3105, 4-[4-[5-(3-methoxy-4-methyl-phenyl)-4-methyl-1H-imidazol-2-yl]-4-methyl-1-piperidyl]-6-methyl-7H-pyrrolo[2,3-d]pyrimidine]
- IC50 (c-kit mutant D816V): 0.0001 to 1 µM
- IC50 [1]: < 10000 nM

SMILES: COc1cc(-c2[nH]c(C3CCN(c4ncnc5[nH]c(-c6ccc(C#N)cc6)cc45)CC3)nc2C)ccc1C [P-3106, 4-[4-[4-[5-(3-methoxy-4-methyl-phenyl)-4-methyl-1H-imidazol-2-yl]-1-piperidyl]-7H-pyrrolo[2,3-d]pyrimidin-6-yl]benzonitrile]
- IC50 (c-kit mutant D816V): 0.0001 to 1 µM
- IC50 [1]: < 10000 nM

SMILES: Cc1nc(C2CCN(c3ncnc4[nH]c(-c5cnn(C(F)F)c5)cc34)CC2)[nH]c1-c1ccc(F)cc1 [P-3107, 6-[1-(difluoromethyl)pyrazol-4-yl]-4-[4-[5-(4-fluorophenyl)-4-methyl-1H-imidazol-2-yl]-1-piperidyl]-7H-pyrrolo[2,3-d]pyrimidine]
- IC50 (c-kit mutant D816V): 0.0001 to 1 µM
- IC50 [1]: < 10000 nM

SMILES: COc1ccc(-c2[nH]c(C3CCN(c4ncnc5[nH]c(-c6cnn(C(F)F)c6)cc45)CC3)nc2C)cc1 [P-3108, 6-[1-(difluoromethyl)pyrazol-4-yl]-4-[4-[5-(4-methoxyphenyl)-4-methyl-1H-imidazol-2-yl]-1-piperidyl]-7H-pyrrolo[2,3-d]pyrimidine]
- IC50 (c-kit mutant D816V): 0.0001 to 1 µM
- IC50 [1]: < 10000 nM
